Laboratory results: patent US20250179073A1, “TRICYCLIC HETEROCYCLE COMPOUNDS AS IAP ANTAGONISTS” (Ascentage Pharma (Suzhou) Co., Ltd., priority 2022, published 2025)

Legend:
MDA-MB-231 cells = test: Cell proliferation assay (CellTiter-Glo), MDA-MB-231; assay type: cell-based; settings: Homo sapiens, MDA-MB-231, 72 h, 72 h treatment, Celltiter-Glo luminescence
In short: (§1)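 MDA-MB-231 (RPMI-1640/10% FBS) and EVSA-T (MEM/10% FBS) cells, 10000 cells/well, exposed 72 h to compound at […]. Viability read by CellTiter-Glo luminescence after 15 min at room temperature. IC50 from control-normalised curve fitting.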

EVSA-T cells = test: Cell proliferation assay (CellTiter-Glo), EVSA-T; assay type: cell-based; settings: Homo sapiens, EVSA-T, 72 h, 72 h treatment, Celltiter-Glo luminescence
In short: as §1

Structure (SMILES) | IC50 (MDA-MB-231 cells) | IC50 (EVSA-T cells)
C[C@@H]1CN(CC(=O)N2CC(C)(C)c3c2cc(Cc2ccc(F)cc2)c2nc(-c4ccn[nH]4)nn32)[C@@H](CN2CCOC[C@H]2C)CN1 [Compound 247, 1-(4-(4-fluorobenzyl)-8,8-dimethyl-2-(1H-pyrazol-5-yl)-7,8-dihydro-6H-pyrrolo[2,3-e][1,2,4]triazolo[1,5-a]pyridin-6-yl)-2-((2R,5R)-5-methy 1-2-(((R)-3-methylmorpholino)methyl)piperazin-1-yl)ethan-1-one] | 4 nM | 6.2 nM
CC(O)Cn1nc2c(Cc3ccc(F)cc3)cc3c(n2c1=O)C(C)(C)CN3C(=O)CN1C[C@@H](C)NC[C@@H]1CN1CCOC[C@H]1C (stereo partly drawn) [Compound 269, 4-(4-fluorobenzyl)-2-(2-hydroxypropyl)-8,8-dimethyl-6-(2-((2R,5R)-5-methyl-2-(((R)-3-methylmorpholino)methyl)piperazin-1-yl)acetyl)-2,6,7,8-tetrahydro-1H-pyrrolo[2,3-e][1,2,4]triazolo[4,3-a]pyridin-1-one] | 10 nM | 5.1 nM
C[C@@H]1CN(CC(=O)N2CC(C)(C)c3c2cc(Cc2ccc(F)cc2)c2ncnn32)[C@@H](CN2CCOC[C@H]2C)CN1 [Example 14, 1-(4-(4-fluorobenzyl)-8,8-dimethyl-7,8-dihydro-6H-pyrrolo[2,3-e][1,2,4]triazolo[1,5-a]pyridin-6-yl)-2-((2R,5R)-5-methyl-2-(((R)-3-methylmorpholino)methyl)piperazin-1-yl)ethan-1-one] | 42 nM | 6 nM
C[C@@H]1CN(CC(=O)N2CC(C)(C)c3c2cc(Cc2ccc(F)cc2)c2nc(N4CCS(=O)(=O)CC4)nn32)[C@@H](CN2CCOC[C@H]2C)CN1 [Compound 199, 1-(2-(1,1-dioxidothiomorpholino)-4-(4-fluorobenzyl)-8,8-dimethyl-7,8-dihydro-6H-pyrrolo[2,3-e][1,2,4]triazolo[1,5-a]pyridin-6-yl)-2-((2R,5R)-5-methyl-2-(((R)-3-methylmorpholino)methyl)piperazin-1-yl)ethan-1-one] | 20 nM | 6 nM
C[C@@H]1CN(CC(=O)N2CC(C)(C)c3c2cc(Cc2ccc(F)cc2)c2ncnn32)[C@@H](CN2CCN(CC#N)C[C@H]2C)CN1 [Compound 182, 2-((R)-4-(((2R,5R)-1-(2-(4-(4-fluorobenzyl)-8,8-dimethyl-7,8-dihydro-6H-pyrrolo[2,3-e][1,2,4]triazolo[1,5-a]pyridin-6-yl)-2-oxoethyl)-5-methylpiperazin-2-yl)methyl)-3-methylpiperazin-1-yl)acetonitrile] | 17 nM | 2 nM
CC(=O)c1nc2c(Cc3ccc(F)cc3)cc3c(n2n1)C(C)(C)CN3C(=O)CN1C[C@@H](C)NC[C@@H]1CN1CCOC[C@H]1C [Compound 224, 1-(2-acetyl-4-(4-fluorobenzyl)-8,8-dimethyl-7,8-dihydro-6H-pyrrolo[2,3-e][1,2,4]triazolo[1,5-a]pyridin-6-yl)-2-((2R,5R)-5-methyl-2-(((R)-3-methylmorpholino)methyl)piperazin-1-yl)ethan-1-one] | 120 nM | 2 nM
C[C@@H]1CN(CC(=O)N2CC(C)(C)c3c2cc(Cc2ccc(F)cc2)c2nc(N4CC(O)C4)nn32)[C@@H](CN2CCOC[C@H]2C)CN1 [Compound 159, 1-(4-(4-fluorobenzyl)-2-(3-hydroxyazetidin-1-yl)-8,8-dimethyl-7,8-dihydro-6H-pyrrolo[2,3-e][1,2,4]triazolo[1,5-a]pyridin-6-yl)-2-((2R,5R)-5-methyl-2-(((R)-3-methylmorpholino)methyl)piperazin-1-yl)ethan-1-one] | 20 nM | 4 nM
C[C@@H]1CN(CC(=O)N2CC(C)(C)c3c2cc(Cc2ccccc2F)c2ncnn32)[C@@H](CN2CCOC[C@H]2C)CN1 [Compound 38, 1-(4-(2-fluorobenzyl)-8,8-dimethyl-7,8-dihydro-6H-pyrrolo[2,3-e][1,2,4]triazolo[1,5-a]pyridin-6-yl)-2-((2R,5R)-5-methyl-2-(((R)-3-methylmorpholino)methyl)piperazin-1-yl)ethan-1-one] | 150 nM | 6 nM
C[C@@H]1CN(CC(=O)N2CC(C)(C)c3c2cc(Cc2ccc(F)cc2)c2nn(CC(F)(F)CO)c(=O)n32)[C@@H](CN2CCOC[C@H]2C)CN1 [Compound 242, 2-(2,2-difluoro-3-hydroxypropyl)-4-(4-fluorobenzyl)-8,8-dimethyl-6-(2-((2R,5R)-5-methyl-2-(((R)-3-methylmorpholino)methyl)piperazin-1-yl)acetyl)-2,6,7,8-tetrahydro-1H-pyrrolo[2,3-e][1,2,4]triazolo[4,3-a]pyridin-1-one] | 18 nM | 2.7 nM
C[C@@H]1CN(CC(=O)N2CC(C)(C)c3c2cc(Cc2ccc(F)cc2)c2nc(CF)cn32)[C@@H](CN2CCOC[C@H]2C)CN1 [Compound 121, 1-(4-(4-fluorobenzyl)-2-(fluoromethyl)-8,8-dimethyl-7,8-dihydro-6H-imidazo[1,2-a]pyrrolo[2,3-e]pyridin-6-yl)-2-((2R,5R)-5-methyl-2-(((R)-3-methylmorpholino)methyl)piperazin-1-yl)ethan-1-one] | 65 nM | 5 nM
C[C@@H]1CN(CC(=O)N2CC(C)(C)c3c2cc(Cc2ccc(F)cc2)c2nc(C4CCOC4)nn32)[C@@H](CN2CCOC[C@H]2C)CN1 (stereo partly drawn) [Compound 163, 1-(4-(4-fluorobenzyl)-8,8-dimethyl-2-(tetrahydrofuran-3-yl)-7,8-dihydro-6H-pyrrolo[2,3-e][1,2,4]triazolo[1,5-a]pyridin-6-yl)-2-((2R,5R)-5-methyl-2-(((R)-3-methylmorpholino)methyl)piperazin-1-yl)ethan-1-one] | 28 nM | 2 nM
C[C@@H]1CN(CC(=O)N2CC3(CCOCC3)c3c2cc(Cc2ccc(F)cc2)c2ncnn32)[C@@H](CN2CCOC[C@H]2C)CN1 [Compound 180, 1-(4′-(4-fluorobenzyl)-2,3,5,6-tetrahydrospiro[pyran-4,8′-pyrrolo[2,3-e][1,2,4]triazolo[1,5-a]pyridin]-6′(7′H)-yl)-2-((2R,5R)-5-methyl-2-(((R)-3-methylmorpholino)methyl)piperazin-1-yl)ethan-1-one] | 615 nM | 56 nM
C[C@@H]1CN(CC(=O)N2CC(C)(C)c3c2cc(Cc2ccc(F)cc2)c2nc(C(=O)NC4CC4)nn32)[C@@H](CN2CCOC[C@H]2C)CN1 [Compound 257, N-cyclopropyl-4-(4-fluorobenzyl)-8,8-dimethyl-6-(2-((2R,5R)-5-methyl-2-(((R)-3-methylmorpholino)methyl)piperazin-1-yl)acetyl)-7,8-dihydro-6H-pyrrolo[2,3-e][1,2,4]triazolo[1,5-a]pyridine-2-carboxamide] | 140 nM | 11.6 nM
C[C@@H]1CN(CC(=O)N2CC(C)(C)c3c2cc(Cc2ccc(F)cc2)c2nc(NC4COC4)nn32)[C@@H](CN2CCOC[C@H]2C)CN1 [Compound 187, 1-(4-(4-fluorobenzyl)-8,8-dimethyl-2-(oxetan-3-ylamino)-7,8-dihydro-6H-pyrrolo[2,3-e][1,2,4]triazolo[1,5-a]pyridin-6-yl)-2-((2R,5R)-5-methyl-2-(((R)-3-methylmorpholino)methyl)piperazin-1-yl)ethan-1-one] | 8 nM | 6 nM
C[C@@H]1CN(CC(=O)N2CC(C)(C)c3c2cc(Cc2ccc(F)cc2)c2nn(CC(C)(C)O)c(=O)n32)[C@@H](CN2CC3CCC(C2)O3)CN1 [Compound 265, 6-(2-((2R,5R)-2-((8-oxa-3-azabicyclo[3.2.1]octan-3-yl)methyl)-5-methylpiperazin-1-yl)acetyl)-4-(4-fluorobenzyl)-2-(2-hydroxy-2-methylpropyl)-8,8-dimethyl-2,6,7,8-tetrahydro-1H-pyrrolo[2,3-e][1,2,4]triazolo[4,3-a]pyridin-1-one] | 41 nM | 26.8 nM
C[C@@H]1CN(CC(=O)N2CC(C)(C)c3c2cc(Cc2ccc(F)cc2F)c2nn(C(C)(C)CO)c(=O)n32)[C@@H](CN2CCOC[C@H]2C)CN1 [Compound 275, 4-(2,4-difluorobenzyl)-2-(1-hydroxy-2-methylpropan-2-yl)-8,8-dimethyl-6-(2-((2R,5R)-5-methyl-2-(((R)-3-methylmorpholino)methyl)piperazin-1-yl)acetyl)-2,6,7,8-tetrahydro-1H-pyrrolo[2,3-e][1,2,4]triazolo[4,3-a]pyridin-1-one] | 9 nM | 3.1 nM
C[C@@H]1CN(CC(=O)N2CC(C)(C)c3c2cc(Cc2ccc(F)cc2)c2ncnn32)[C@@H](CN2Cc3ccc(F)cc3C2=O)CN1 [Compound 101, 6-fluoro-2-(((2R,5R)-1-(2-(4-(4-fluorobenzyl)-8,8-dimethyl-7,8-dihydro-6H-pyrrolo[2,3-e][1,2,4]triazolo[1,5-a]pyridin-6-yl)-2-oxoethyl)-5-methylpiperazin-2-yl)methyl)isoindolin-1-one] | 23 nM | 8 nM
Cc1nc2c(Cc3ccc(F)cc3)cc3c(n2n1)C(C)(C)CN3C(=O)CN1C[C@@H](C)NC[C@@H]1CN1CCOC[C@H]1C [Compound 36, 1-(4-(4-fluorobenzyl)-2,8,8-trimethyl-7,8-dihydro-6H-pyrrolo[2,3-e][1,2,4]triazolo[1,5-a]pyridin-6-yl)-2-((2R,5R)-5-methyl-2-(((R)-3-methylmorpholino)methyl)piperazin-1-yl)ethan-1-one] | 36 nM | 2 nM
COC(=O)Nc1nc2c(Cc3ccc(F)cc3)cc3c(n2n1)C(C)(C)CN3C(=O)CN1C[C@@H](C)NC[C@@H]1CN1CCOC[C@H]1C [Compound 234, methyl (4-(4-fluorobenzyl)-8,8-dimethyl-6-(2-((2R,5R)-5-methyl-2-(((R)-3-methylmorpholino)methyl)piperazin-1-yl)acetyl)-7,8-dihydro-6H-pyrrolo[2,3-e][1,2,4]triazolo[1,5-a]pyridin-2-yl)carbamate] | 10 nM | 0.7 nM
